Data published in US20050209106A1, “Substituted 4-(4-trifluoromethylpyrazolyl)pyrimidines” (Bayer CropScience GmbH, priority 2004, published 2005).

Tests used:
Format in all cases: in vivo
Amaranthus retroflexus [1] = assay: Herbicidal pre-emergence action against harmful plants; conditions: dosage of 1000 g and less than 1000 g of active substance per hectare, visual scoring after 3 to 4 weeks, greenhouse
Source text: (§1) 1. Herbicidal Pre-Emergence Action Against Harmful Plants
(§2) Seeds of mono- and dicotyledonous harmful plants are put in sandy loam in cardboard pots and covered with soil. The compounds according to the invention, which are formulated in the form of wettable powders or emulsion concentrates, are then applied to the surface of the soil cover as an aqueous suspension or emulsion at an application rate of 600 to 800 l/ha (converted) in various dosages. After the treatment, the pots are placed in a greenhouse and kept under good growth conditions for the weeds. Visual scoring of the plant damage or emergence damage is carried out after the test plants have emerged after a test period of 3 to 4 weeks in comparison with untreated controls.

Lolium multiflorum = assay: as above; conditions: dosage of 1000 g and less than 1000 g of active substance per hectare, visual scoring after 3 to 4 weeks, greenhouse
Source text: as §1, §2

Setaria viridis = assay: as above; conditions: dosage of 1000 g and less than 1000 g of active substance per hectare, visual scoring after 3 to 4 weeks, greenhouse
Source text: as §1, §2

Stellaria media [2] = assay: as above; conditions: dosage of 1000 g and less than 1000 g of active substance per hectare, visual scoring after 3 to 4 weeks, greenhouse
Source text: as §1, §2

Amaranthus retroflexus [3] = assay: Herbicidal post-emergence action against harmful plants; conditions: three-leaf stage, dosage of 1000 g and less than 1000 g of active substance per hectare, scored after 3 to 4 weeks, greenhouse
Procedure: (§3) 2. Herbicidal Post-Emergence Action Against Harmful Plants
(§4) Seeds of mono- and dicotyledonous harmful plants are put into sandy loam in cardboard pots, covered with soil and grown in the greenhouse under good growth conditions. Two to three weeks after sowing, the test plants are treated at the three-leaf stage. The compounds according to the invention, which are formulated as wettable powders or as emulsion concentrates, are sprayed onto the surface of the green plant parts in various dosages at a water application rate of 600 to 800 l/ha (converted). After the test plants have been left to stand in the greenhouse for 3 to 4 weeks under optimum growth conditions, the action of the compounds is scored.

Avena fatua = assay: as above; conditions: three-leaf stage, dosage of 1000 g and less than 1000 g of active substance per hectare, scored after 3 to 4 weeks, greenhouse
Procedure: as §3, §4

Sinapis arvensis = assay: as above; conditions: three-leaf stage, dosage of 1000 g and less than 1000 g of active substance per hectare, scored after 3 to 4 weeks, greenhouse
Procedure: as §3, §4

Stellaria media [4] = assay: as above; conditions: three-leaf stage, dosage of 1000 g and less than 1000 g of active substance per hectare, scored after 3 to 4 weeks, greenhouse
Procedure: as §3, §4

COc1cc(-n2ncc(C(F)(F)F)c2C)nc(Oc2ccnc(C(F)(F)F)c2)n1 [1.39]
100%: action against Amaranthus retroflexus (Amaranthus retroflexus [1]) | action against Lolium multiflorum (Lolium multiflorum) | action against Setaria viridis (Setaria viridis) | action against Stellaria media (Stellaria media [2])

CCc1cc(-n2cc(C(F)(F)F)c(C)n2)nc(Oc2ccnc(C(F)(F)F)c2)n1 [1.26]
100%: action against Amaranthus retroflexus (Amaranthus retroflexus [1]) | action against Lolium multiflorum (Lolium multiflorum) | action against Setaria viridis (Setaria viridis) | action against Stellaria media (Stellaria media [2])

Cc1cc(-n2cc(C(F)(F)F)c(C)n2)nc(Oc2ccnc(C(F)(F)F)c2)n1 [1.14]
100%: action against Amaranthus retroflexus (Amaranthus retroflexus [1]) | action against Lolium multiflorum (Lolium multiflorum) | action against Setaria viridis (Setaria viridis) | action against Stellaria media (Stellaria media [2])

Cc1cc(-n2cc(C(F)(F)F)cn2)nc(Oc2cc(C(F)(F)F)nn2C)n1 [9.13]
100%: action against Amaranthus retroflexus (Amaranthus retroflexus [1]) | action against Setaria viridis (Setaria viridis) | action against Stellaria media (Stellaria media [2])

Cc1cc(-n2cc(C(F)(F)F)c(C)n2)nc(Oc2cc(C(F)(F)F)nn2C)n1 [9.14]
100%: action against Amaranthus retroflexus (Amaranthus retroflexus [1]) | action against Setaria viridis (Setaria viridis) | action against Stellaria media (Stellaria media [2])

CCc1cc(-n2cc(C(F)(F)F)cn2)nc(Oc2cc(C(F)(F)F)nn2C)n1 [9.25]
100%: action against Amaranthus retroflexus (Amaranthus retroflexus [3]) | action against Avena fatua (Avena fatua) | action against Sinapis arvensis (Sinapis arvensis) | action against Stellaria media (Stellaria media [4])

Cc1cc(-n2cc(C(F)(F)F)cn2)nc(Oc2csc(C(F)(F)F)c2)n1 [7.13]
100%: action against Amaranthus retroflexus (Amaranthus retroflexus [1]) | action against Setaria viridis (Setaria viridis) | action against Stellaria media (Stellaria media [2])

COc1cc(-n2cc(C(F)(F)F)cn2)nc(Oc2ccnc(OC(F)F)c2)n1 [1.46]
100%: action against Amaranthus retroflexus (Amaranthus retroflexus [1]) | action against Lolium multiflorum (Lolium multiflorum) | action against Setaria viridis (Setaria viridis) | action against Stellaria media (Stellaria media [2]) | action against Amaranthus retroflexus (Amaranthus retroflexus [3]) | action against Avena fatua (Avena fatua) | action against Sinapis arvensis (Sinapis arvensis) | action against Stellaria media (Stellaria media [4])
